What all share (assay type): cell-based
The subject of one assay is Pseudomonas #28. In words: In vitro minimal inhibitory concentration, Pseudomonas #28. The settings on record: Pseudomonas #28; in vitro; read-out: Minimal Inhibitory Concentration.
The subject of another assay is Pseudomonas BRK 12-4-4. In words: In vitro minimal inhibitory concentration, Pseudomonas BRK 12-4-4. The settings on record: BRK1244.
Another assay deals with Pseudomonas UI 18. Put plainly: In vitro minimal inhibitory concentration, Pseudomonas UI 18. The following applies: UI18.
Another assay deals with E. Coli. Brig. In words: In vitro minimal inhibitory concentration, E. Coli. Brig. The following applies: Escherichia coli.
For another assay, the system named is E. Coli. Vogel. Put plainly: In vitro minimal inhibitory concentration, E. Coli. Vogel. The following applies: Escherichia coli.
The next assay concerns Prot Vulg. In words: In vitro minimal inhibitory concentration, Prot Vulg.
Another assay deals with Entero Cloac. IM 11. In words: In vitro minimal inhibitory concentration, Entero Cloac. IM 11.
The next assay relates to Serr. Mar. IMM 16. In words: In vitro minimal inhibitory concentration, Serr. Mar. IMM 16.
The test system of a further assay is Klebs. Pneum. MGH 2. In words: In vitro minimal inhibitory concentration, Klebs. Pneum. MGH 2.
The next assay deals with Strep. fec. MGH 2. In words: In vitro minimal inhibitory concentration, Strep. fec. MGH 2.
The next assay relates to Staph UC76. In words: In vitro minimal inhibitory concentration, Staph UC76.
The test system of the next assay is Staph S 18713. In words: In vitro minimal inhibitory concentration, Staph S 18713.

Converted amounts (≈) assume the structure as drawn.

With `CC(=O)NCCCCC(NC(C)=O)C(=O)Nc1ccc(-c2ccc(C(=O)N[C@@H](C(=O)NC3C(=O)N4C(C(=O)O)=C(COC(C)=O)CSC34)c3ccccc3)c(=O)[nH]2)cc1` (mixture of isomers) [Example 27, N-[6-[4-(N,N'-Diacetyl-DL-lysylamino)phenyl]-1,2-dihydro-2-oxonicotinyl]-7-[D-2-amino-2-phenylacetamido]-3-acetoxymethyl-3-cephem-4-carboxylic acid], the MIC was determined as 3.1 µg/mL with Pseudomonas #28; 12.5 µg/mL in the assay with Pseudomonas BRK 12-4-4; 6.3 µg/mL against Pseudomonas UI 18; 25 µg/mL in the assay with E. Coli. Brig; 3.1 µg/mL with E. Coli. Vogel; 50 µg/mL in the assay with Prot Vulg.. The MIC in the assay with Entero Cloac. IM 11 was 12.5 µg/mL; in the assay on Serr. Mar. IMM 16, greater than 50 µg/mL; with Klebs. Pneum. MGH 2, 6.3 µg/mL; against Strep. fec. MGH 2, 25 µg/mL; in the assay on Staph UC76 it was 1.6 µg/mL; with Staph S 18713, 12.5 µg/mL.
For the molecule `CC(=O)NCCCCC(NC(C)=O)C(=O)Nc1ccc(-c2ccc(C(=O)N[C@@H](C(=O)NC3C(=O)N4C(C(=O)O)=C(CSc5nnnn5C)CSC34)c3ccccc3)c(=O)[nH]2)cc1` (mixture of isomers) [Example 26, N-[6-[4-(N,N'-Diacetyl-DL-lysylamino)phenyl)-1,2-dihydro-2-oxonicotinyl]-7-[D-2-amino-2-phenylacetamido]3-[[(1-methyl-1H-tetrazol-5-yl)thio]methyl]-3-cephem-4-carboxylic acid], the MIC with Pseudomonas #28 is 12.5 µg/mL; against Pseudomonas BRK 12-4-4, 12.5 µg/mL; in the assay with Pseudomonas UI 18, 12.5 µg/mL; in the assay with E. Coli. Brig, 12.5 µg/mL; against E. Coli. Vogel, 1.6 µg/mL; in the assay on Prot Vulg. it was 25 µg/mL. The MIC is 6.3 µg/mL in the assay on Entero Cloac. IM 11; 50 µg/mL in the assay on Serr. Mar. IMM 16; 1.6 µg/mL in the assay on Klebs. Pneum. MGH 2; 50 µg/mL with Strep. fec. MGH 2; 1.6 µg/mL against Staph UC76; 6.3 µg/mL in the assay on Staph S 18713.
On to `CC(=O)N[C@H](C)C(=O)Nc1ccc(-c2ccc(C(=O)N[C@@H](C(=O)NC3C(=O)N4C(C(=O)O)=C(CSc5nnnn5C)CSC34)c3ccc(O)cc3)c(=O)[nH]2)cc1` (stereo partly drawn) [Example 25, N-[6-[4(N-Acetyl-D-alanylamino)phenyl]-1,2-dihydro-2-oxonicotinyl]-7-[D-2-amino-2-(4-hydroxyphenyl)acetamido]-3-[[(1-methyl-1H-tetrazol-5-yl)thio]methyl]-3-cephem-4-carboxylic acid], for which the MIC in the assay on Pseudomonas #28 was determined as 3.1 µg/mL (≈ 3.86 µM); against Pseudomonas BRK 12-4-4, 3.1 µg/mL (≈ 3.86 µM); against Pseudomonas UI 18, 3.1 µg/mL (≈ 3.86 µM); in the assay with E. Coli. Brig it was 3.1 µg/mL (≈ 3.86 µM); in the assay on E. Coli. Vogel, 0.8 µg/mL (≈ 0.996 µM); in the assay on Prot Vulg. it was 6.3 µg/mL (≈ 7.85 µM). The MIC in the assay with Entero Cloac. IM 11 came out at 1.6 µg/mL (≈ 1.99 µM); against Serr. Mar. IMM 16, 12.5 µg/mL (≈ 15.6 µM); against Klebs. Pneum. MGH 2 it was 1.6 µg/mL (≈ 1.99 µM); against Strep. fec. MGH 2, 12.5 µg/mL (≈ 15.6 µM); with Staph UC76, 1.6 µg/mL (≈ 1.99 µM); in the assay with Staph S 18713, 6.3 µg/mL (≈ 7.85 µM).
As to `CC(=O)NC(C)(C)C(=O)Nc1ccc(-c2ccc(C(=O)N[C@@H](C(=O)NC3C(=O)N4C(C(=O)O)=C(COC(C)=O)CSC34)c3ccccc3)c(=O)[nH]2)cc1` (stereo partly drawn) [Example 11, N-[6-[4-(N-Acetyl-alpha-aminoisobutyrylamino)phenyl]-1,2-dihydro-2-oxonicotinyl]-7-[D-2-amino-2-phenylacetamido]-3-acetoxymethyl-3-cephem-4-carboxylicacid], the MIC with Pseudomonas #28 came to 3.1 µg/mL (≈ 4.16 µM); with Pseudomonas BRK 12-4-4, 6.3 µg/mL (≈ 8.46 µM); against Pseudomonas UI 18, 6.3 µg/mL (≈ 8.46 µM); with E. Coli. Brig it was 12.5 µg/mL (≈ 16.8 µM); with E. Coli. Vogel, 3.1 µg/mL (≈ 4.16 µM); against Prot Vulg. it was 12.5 µg/mL (≈ 16.8 µM). The MIC against Entero Cloac. IM 11 came to 12.5 µg/mL (≈ 16.8 µM); with Serr. Mar. IMM 16, 50 µg/mL (≈ 67.1 µM); against Klebs. Pneum. MGH 2, 12.5 µg/mL (≈ 16.8 µM); against Strep. fec. MGH 2, 25 µg/mL (≈ 33.6 µM); with Staph UC76, 0.4 µg/mL (≈ 0.537 µM); in the assay with Staph S 18713 it was 3.1 µg/mL (≈ 4.16 µM).
On to `CC(=O)NC(C)C(=O)Nc1ccc(-c2ccc(C(=O)N[C@@H](C(=O)NC3C(=O)N4C(C(=O)O)=C(COC(N)=O)CSC34)c3ccccc3)c(=O)[nH]2)cc1` (mixture of isomers) [Example 10, N-[6-[4(N-Acetyl-DL-alanylamino)phenyl]-1,2-dihydro-2-oxonicotinyl]-7-[D-2-amino-2-phenylacetamido]-3-carbamoyloxymethyl-3-cephem-4-carboxylic acid], for which the MIC was determined as 3.1 µg/mL in the assay with Pseudomonas #28; 12.5 µg/mL in the assay with Pseudomonas BRK 12-4-4; 6.3 µg/mL with Pseudomonas UI 18; 12.5 µg/mL in the assay with E. Coli. Brig; 6.3 µg/mL against E. Coli. Vogel; 12.5 µg/mL in the assay with Prot Vulg.. Moreover, the MIC with Entero Cloac. IM 11 is 25 µg/mL; against Serr. Mar. IMM 16 it was greater than 50 µg/mL; against Klebs. Pneum. MGH 2, 12.5 µg/mL; in the assay with Strep. fec. MGH 2, 12.5 µg/mL; in the assay with Staph UC76 it was 1.6 µg/mL; against Staph S 18713 it was 3.1 µg/mL.
On to `CC(=O)N[C@H](CC(N)=O)C(=O)Nc1ccc(-c2ccc(C(=O)N[C@@H](C(=O)NC3C(=O)N4C(C(=O)O)=C(CSc5nnnn5C)CSC34)c3ccccc3)c(=O)[nH]2)cc1` (stereo partly drawn) [Example 23, N-[6-[4-(N-Acetyl-D-asparaginylamino)phenyl]-1,2-dihydro-2-oxonicotinyl]-7-[D-2-amino-2-phenylacetamido]-3-[[(1-methyl-1H-tetrazol-5-yl)thio]methyl]-3-cephem-4-carboxylic acid], for which the MIC in the assay with Pseudomonas #28 worked out at 12.5 µg/mL (≈ 15.1 µM); in the assay on Pseudomonas BRK 12-4-4, 6.3 µg/mL (≈ 7.59 µM); against Pseudomonas UI 18, 6.3 µg/mL (≈ 7.59 µM); with E. Coli. Brig, 3.1 µg/mL (≈ 3.74 µM); in the assay with E. Coli. Vogel it was 0.8 µg/mL (≈ 0.964 µM); against Prot Vulg., 12.5 µg/mL (≈ 15.1 µM). For the same molecule, the MIC turned out to be 6.3 µg/mL (≈ 7.59 µM) against Entero Cloac. IM 11; 25 µg/mL (≈ 30.1 µM) with Serr. Mar. IMM 16; 1.6 µg/mL (≈ 1.93 µM) against Klebs. Pneum. MGH 2; 25 µg/mL (≈ 30.1 µM) against Strep. fec. MGH 2; 0.8 µg/mL (≈ 0.964 µM) in the assay with Staph UC76; 6.3 µg/mL (≈ 7.59 µM) in the assay on Staph S 18713.

(Values after US4311698A, “Aminoacid derivatives of cephalosporin compounds” (priority 1980, dated 1982).)
